Reference: a melting point compilation (Tetko et al.; mined from patent text by program, amines drawn as free bases though some values may be those of a salt)

First: Cc1cc(C=O)cc(Oc2nc(OCc3ccccc3)nc(OCc3ccccc3)c2C(C)C)c1
Second: O=c1nc(-c2cccc(OCc3ccccc3)n2)sc2ccccc12
The melting point of the first is lower: 171 to 172 °C for the first, 241 °C for the second.

First: COCCOCCOc1ccc2cc(C(=O)O)[nH]c2c1
Second: COC(=O)c1ccc2cc(Cl)ccc2c1
The melting point of the first is higher: 99 to 102 °C for the first, 97 to 98 °C for the second.

Compared with `CS(=O)(=O)N(c1ccc([N+](=O)[O-])cn1)S(C)(=O)=O`, `NS(=O)(=O)c1ccc(NC(=O)NC2CCCC2)cc1` is higher in melting point: 175 to 177 °C for the first, 224 to 226 °C for the second.

First: CCOC1(c2ccccc2)c2cc(Cl)ccc2NC(=O)N1c1ccccc1 (stereo not given)
Second: COc1ccc(C=CC(=O)C(CCC(=O)O)(Cc2ccccc2Cl)c2ccccc2)cc1 (stereo not given)
The melting point of the first is higher: 209 to 211 °C for the first, 152 to 157 °C for the second.

First: COC(=O)CCC(=O)c1ccc(NC(=O)c2ccc(C)cc2)cc1
Second: CON=C(C(=O)Nc1ccc(C(=O)O)cc1)c1ccc2c(c1)C(C)(C)CCC2(C)C
The melting point of the first is lower: 192 to 195 °C for the first, 208 to 209 °C for the second.

Compared with `COC(=O)Cc1ccc(CN2CCN(C(c3ccccc3)c3ccccc3)CC2)cc1`, `CN1CCN(c2nc(Oc3ccccc3)c3ccccc3n2)CC1` is lower in melting point: 124 to 125 °C for the first, 102 to 103 °C for the second.

First: S=c1nc(-c2ccncc2)[nH]n1Cc1ccccc1
Second: CCCc1nc2ccnn2c(O)c1Cc1ccc(-c2ccccc2C#N)cc1
The melting point of the first is lower: 160 to 162 °C for the first, 251 °C for the second.

Compared with `CCCC1CCC(C2CCC3(CC2)C(=O)C2(CCC(C4CCC(CCC)CC4)CC2)C3=O)CC1` (stereo not given), `CCCN1C(=O)N(CCC)C(=O)C2(CC=C3C(CCC4=Cc5c(cnn5-c5ccc(F)cc5)CC43C)O2)C1=O` (stereo not given) is lower in melting point: 290 °C for the first, 81 to 82 °C for the second.

First: COC1=C(Br)CO/C1=C\c1cccc2ccccc12
Second: COC(=O)c1cc2c3ccccc3n(C(=O)c3ccccc3)c2s1
The melting point of the first is lower: 143 to 148 °C for the first, 150 to 151 °C for the second.

First: Cc1cc(CCCCCOc2c(Cl)cc(C3=NCCO3)cc2Cl)sn1
Second: CCCCCCCc1ccc2cc(-c3ncc(CC)cn3)ccc2c1
The melting point of the first is lower: 38 to 39.5 °C for the first, 62.3 to 63.1 °C for the second.

First: CC(C)(C)OC(=O)N1CCC(CBr)CC1
Second: CC(C)(C)OC(=O)[C@H]1CC[C@@H](NC(=O)OCc2ccccc2)CC1
The melting point of the first is lower: 48 to 50 °C for the first, 73 to 74 °C for the second.

First: CC(=O)C(C#N)C(=O)C1CC1 (stereo not given)
Second: CC(C)CC(=O)Nc1c(C(=O)C2CCCCC2)[nH]c2cc(Cl)ccc12
The melting point of the first is lower: 62 to 63.5 °C for the first, 209 to 215 °C for the second.

First: C=C(c1ccc(C(=O)OC)cc1)N1CC1C(N)=O (stereo not given)
Second: COC(=O)c1ccc2cc(C(O)c3cccnc3)ccc2c1 (stereo not given)
The melting point of the first is higher: 149 to 150 °C for the first, 130 to 135 °C for the second.

First: Cc1sc(CCc2ccc(C=CC=O)cc2)nc1-c1ccccc1
Second: O=c1c2c(Cc3ccc(F)cc3)n[nH]c2c2cccnc2n1-c1ccccc1
The melting point of the first is lower: 94 to 95 °C for the first, 271 to 274 °C for the second.

Compared with `Cc1cnc(C)c(Cl)c1N`, `Cc1nnc(-c2ccnc(N)c2)o1` is higher in melting point: 82 to 83 °C for the first, 216 to 217 °C for the second.

Compared with `CC(C)(C)c1ccc(Oc2ncnc3cc(-c4ncccc4C(F)(F)F)ccc23)cc1`, `CC(Oc1ccc(Oc2ccc(C(F)(F)F)cc2)cc1)C(=O)O` (stereo not given) is lower in melting point: 162 to 163 °C for the first, 138 to 140 °C for the second.

First: Cc1ccc(-c2ccc(C)cc2C=CC#Cc2ccc(C(=O)O)cc2)cc1
Second: CCOC(=O)c1c(-c2ccc(-c3ccccn3)cc2)n(C)n(-c2ccc(C#N)cc2)c1=O
The melting point of the first is lower: 61 to 67 °C for the first, 205 to 211 °C for the second.

First: CC(=O)CC(=O)Nc1cccc(NC(C)=O)c1
Second: O=C(O)CCC(=O)Nc1ccc2[nH]c(=O)c3ccccc3c2c1
The melting point of the first is lower: 107 °C for the first, 224 to 228 °C for the second.

First: CC(C)N1CCC(NC(=O)Nc2ccccc2CCc2cc(C(C)(C)C)c(O)c(C(C)(C)C)c2)CC1
Second: Cc1ccccc1CC(=NC#N)NC(NC(=O)Cc1ccc2cccnc2c1)C(C)(C)C (stereo not given)
The melting point of the first is higher: 191 to 193 °C for the first, 165 to 166 °C for the second.

Compared with `CC1(C)OCc2cc(C(=O)CBr)ccc2O1`, `CC1(C)CCC(C)(C)c2cc(CC(=O)O)ccc21` is higher in melting point: 52 to 54 °C for the first, 149 to 150 °C for the second.

First: CC(=O)c1ccc(Nc2c(F)c(F)cc(F)c2F)c(CC(=O)N(C)C)c1
Second: CN(C)C(=O)N(C)C(=O)Nc1ccc(Cl)cc1
The melting point of the first is higher: 112 to 114 °C for the first, 94.5 to 95 °C for the second.

Compared with `CN1C[C@H](c2cnccn2)OC1=O`, `O=C1O[C@H](CO)CN1c1ccc(C2CCCCC2)cc1` is higher in melting point: 114 °C for the first, 166 to 168 °C for the second.

`CCc1nn2ccccc2c1C(C)=O` and `CC(=O)c1ccc2c(c1)Sc1ccccc1O2` cannot be ordered by melting point: 108 to 112 °C for the first, 112 °C for the second.

First: CC1(C)C(=O)N(c2ccc(C#N)c(Cl)c2)C(=O)N1CCCCCN1C(=O)N(c2ccc(C#N)c(Cl)c2)C(=O)C1(C)C
Second: CN1C(=O)N(c2cc(Cl)cc(Cl)c2)C(=O)[C@]12CN(Cc1ccccc1)C[C@H]2c1ccc(Br)cc1 (relative stereo)
The melting point of the first is lower: 166 to 167 °C for the first, 204 °C for the second.

First: CCC(CCCCc1ccccc1)(CC(=O)O)S(=O)(=O)c1ccc(OC)cc1 (stereo not given)
Second: O=C(O)CCCCCCOc1ccc(-c2ccccc2)cc1
The melting point of the first is lower: 44 to 46 °C for the first, 78 to 79 °C for the second.

Compared with `O=C(OC1c2ccccc2C(=O)N1c1ccc2ccc(Cl)nc2n1)N1CCN(C(=O)C(F)(F)F)CC1` (stereo not given), `CN1CCN(c2ccc3c4c(cccc24)C(=O)N(O)C3=O)CC1` is higher in melting point: 218 °C for the first, 326 to 329 °C for the second.

First: Cn1ncnc1COc1nc2c(cc1-c1cccc(F)c1)nnn2-c1c(F)cccc1F
Second: O=c1ncn(Cc2ccc(Cl)cc2)c2cc(-c3ccc(OCc4cccnc4)cc3)sc12
The melting point of the first is lower: 137 to 140 °C for the first, 255 to 257 °C for the second.

First: Cc1c(OCc2ccccc2)ccc2c(O)c(C(=O)Nc3cccc(F)c3)c(=O)oc12
Second: CC=Nc1cc(CO)cc(Nc2c3ccccc3nc3ccccc23)c1
The melting point of the first is higher: 220 °C for the first, 158 to 161 °C for the second.

First: CCn1c(=O)[nH]c2c3cccnc3ccc21
Second: O=C(O)Cn1c(=O)n(Cc2ccc(Cl)c(Cl)c2)c(=O)c2ccccc21
The melting point of the first is higher: 258 to 259 °C for the first, 225 to 227 °C for the second.

Compared with `CNC(=O)CNc1c(C)cccc1C`, `Cc1ccc(C(=S)C=CC(=O)Nc2c(C)cccc2C)cc1` is higher in melting point: 52 to 54 °C for the first, 216 to 217 °C for the second.

Compared with `CCCn1nc(C)c2nc(C)nc(O)c21`, `CCn1ncc2c(-c3cncc(C)c3)c(/C=C/C(=O)O)c(COC)nc21` is lower in melting point: 196 to 198 °C for the first, 195 to 196 °C for the second.

First: COc1ccc(C(=O)n2cccc2Br)c(OC)c1
Second: COc1ccc(-c2cncc(OC3SCC(O)C(O)C3O)c2)c(OC)c1 (stereo not given)
The melting point of the first is lower: 81 to 82 °C for the first, 184 °C for the second.

First: Clc1ncc(Cl)c(NC2CCCCC2)n1
Second: CN(C)c1nc2cc(NC(=O)c3c(C(=O)N4CCCC4)cnn3C)ccn2n1
The melting point of the first is lower: 93 to 94 °C for the first, 199 to 201 °C for the second.

`CN(C)c1cc(-c2c[nH]c(N)n2)ccn1` and `COc1ccc(-c2nc(O)cc(O)n2)cc1` cannot be ordered by melting point: over 270 °C for the first, 318 °C for the second.

Compared with `CSc1ccc(CCC(C)=NO)cc1`, `Cc1oc(-c2cccc(Br)c2)nc1CCO` is higher in melting point: 71 °C for the first, 92 to 93 °C for the second.

First: OCCc1ccc(Nc2ncc3c(n2)-c2ccccc2C(c2ccc(Cl)cc2)C3)cc1 (stereo not given)
Second: CCN1CCCC(CC)(c2ccc(Nc3ncc4ccc(-c5ccccc5OC)n4n3)cc2)C1 (stereo not given)
The melting point of the first is higher: 163 to 164 °C for the first, 69 to 78 °C for the second.

`CC(C)n1cnc2c(Nc3cccc(F)c3)nc(NCCO)nc21` and `COc1nc(C)nc(NC(=O)NS(=O)(=O)c2ccccc2Cc2nnc(SC)s2)n1` cannot be ordered by melting point: 142 °C for the first, 140 to 146 °C for the second.

First: Cc1ccc(C)c(C(C)Sc2cc(C)c3ccccc3n2)c1 (stereo not given)
Second: CC1=NC2CN=C(c3ccccc3)c3cc(Cl)ccc3C2C(=O)N1 (stereo not given)
The melting point of the first is lower: 84 to 85 °C for the first, 155 to 160 °C for the second.

First: CC(C)(C)OC(=O)C=Cc1cncc2ccccc12
Second: COc1ccc2sn(C(C)(C)C)c(=O)c2c1
The melting point of the first is lower: 81 to 83 °C for the first, 92 to 94 °C for the second.

Compared with `CCOC(=O)CCCOc1cccc(-c2n[nH]c3c2Cc2ccccc2-3)c1`, `CCOc1ccc(C=C(CSC(C)=O)C(=O)NCCC(=O)OCc2ccccc2)cc1` is lower in melting point: 142 to 148 °C for the first, 92 °C for the second.

Compared with `Nc1c(-c2cc(Cl)ccc2O)c2cc(Cl)c(Cl)cc2[nH]c1=O`, `CC1=CC(=O)C(=Cc2ccc(O)cc2O)O1` is lower in melting point: 305 to 307 °C for the first, 239 to 242 °C for the second.

Compared with `Clc1ccc(-c2cncn3ncnc23)cc1`, `N#CC(=Cc1cccnc1)c1ccc(Cl)cc1` is lower in melting point: 154 to 155 °C for the first, 141 to 143 °C for the second.

First: N=C(N)Nc1nc(CSCCNC(N)=N[N+](=O)[O-])ns1
Second: CNC(=NC#N)Nc1cccc(C(=O)NCCSCc2ccc(CN(C)C)o2)c1
The melting point of the first is higher: 184 to 186 °C for the first, 140 to 142 °C for the second.

First: CC(C)Cc1c(Cl)sc2[nH]c(=O)c(=O)[nH]c12
Second: O=C1CSC(=S)N1C(=O)Nc1ccc2nc(S)sc2c1
The melting point of the first is higher: over 270 °C for the first, 212 to 217 °C for the second.

First: Cc1cc(C)n(-c2nc(Nc3ccc(Cl)cc3)cc(N3CCOCC3)n2)n1
Second: Clc1cccc(OC2CCNc3ncc(-c4ccc(N5CCOCC5)cc4)cc32)c1 (stereo not given)
The melting point of the first is higher: 186 to 187 °C for the first, 124 to 126 °C for the second.

Compared with `O=C(O)c1ccc(C(F)F)s1`, `N#CC(C(N)=O)=C1Cc2ccccc2SN1` is higher in melting point: 111 to 112 °C for the first, 260 to 267 °C for the second.

First: CCOC(=O)C(=CNc1sc(Cl)cc1C(=O)OC)C(=O)OCC
Second: CCOC(=O)NCCCCCCNC(=O)OCC
The melting point of the first is higher: 89.5 to 90.5 °C for the first, 80 to 82 °C for the second.

First: CS(=O)CCNC(=O)c1cccc(-c2cccc(Oc3cc(Cl)cc(Cl)c3)n2)c1 (stereo not given)
Second: O=C1CCC(N2Cc3c(CNC(=O)Nc4cccc(Cl)c4)cccc3C2=O)C(=O)N1 (stereo not given)
The melting point of the first is lower: 158 to 159 °C for the first, 250 to 252 °C for the second.

Compared with `CC(C(=S)c1cc(NC=O)ccn1)S(C)=O` (stereo not given), `CC(C)n1nc(CS(C)=O)cc1O` (stereo not given) is lower in melting point: 132 °C for the first, 69 °C for the second.

First: OC1(c2c[nH]c(-c3ccc(F)cc3)c2-c2ccncc2)CCNCC1
Second: COc1ccc(CN2CCC(c3cn(Cc4ccc(Cl)s4)c4cccnc34)CC2)cc1C(=O)O
The melting point of the first is lower: 197 to 199 °C for the first, 201 to 202 °C for the second.

First: CCOC(=O)C(C#N)C1(C#N)C(=O)N(Cc2ccc(C)cc2)c2c(C)cccc21 (stereo not given)
Second: N#Cc1ccc(OC[C@H]2C[C@@H](O)CN2c2ccc(C#N)c3ccccc23)c2ccccc12
The melting point of the first is higher: 128 to 130 °C for the first, 123 to 126 °C for the second.

First: O=C(NCCn1cncn1)c1ccc(Br)cc1
Second: O=C(CC(Cc1cccc2ccccc12)C(=O)O)NCCc1c[nH]c2ccccc12 (stereo not given)
The melting point of the first is higher: 160 to 162 °C for the first, 73 to 75 °C for the second.

`C=CCN1C(C(=O)Nc2coc3ccccc3c2=O)C(=O)c2ccccc2S1(=O)=O` (stereo not given) showed a melting point of 218 to 220 °C.
